# Measurements taken from ChEMBL document CHEMBL1781873, “Synthesis and antibacterial property of pyrrolopyrano quinolinones and pyrroloquinolines” (2011).
# The source made the active and inactive calls. The rule behind the calls is not given here.
# Assays:
# [1] = tested on: Salmonella typhi; test: Antibacterial activity against Salmonella typhi at 10 ug after 24 hrs by disc diffusion assay; format: functional, Salmonella enterica subsp. enterica serovar Typhi; conditions: Salmonella enterica, read-out: IZ
# [2] = tested on: Salmonella typhi; test: Antibacterial activity against Salmonella typhi at 15 ug after 24 hrs by disc diffusion assay; format: functional, Salmonella enterica subsp. enterica serovar Typhi; conditions: Salmonella enterica, read-out: IZ
# [3] = tested on: Salmonella typhi; test: Antibacterial activity against Salmonella typhi at 20 ug after 24 hrs by disc diffusion assay; format: functional, Salmonella enterica subsp. enterica serovar Typhi; conditions: Salmonella enterica, read-out: IZ
# [4] = tested on: Salmonella typhi; test: Antibacterial activity against Salmonella typhi at 25 ug after 24 hrs by disc diffusion assay; format: functional, Salmonella enterica subsp. enterica serovar Typhi; conditions: Salmonella enterica, read-out: IZ
# [5] = tested on: Bacillus subtilis; test: Antibacterial activity against Bacillus subtilis at 15 ug after 24 hrs by disc diffusion assay; format: functional; conditions: read-out: IZ
# [6] = tested on: Bacillus subtilis; test: Antibacterial activity against Bacillus subtilis at 20 ug after 24 hrs by disc diffusion assay; format: functional; conditions: read-out: IZ
# [7] = tested on: Bacillus subtilis; test: Antibacterial activity against Bacillus subtilis at 25 ug after 24 hrs by disc diffusion assay; format: functional; conditions: read-out: IZ
# [8] = tested on: Escherichia coli; test: Inhibition of Escherichia coli DNA gyrase assessed as inhibition of DNA supercoiling activity using pBR322 DNA as substrate at […] after 3 hrs by agarose gel electrophoresis
# [9] = tested on: Escherichia coli; test: Inhibition of Escherichia coli DNA gyrase -mediated DNA relaxation using pBR322 DNA as substrate at […] after 1 hrs by agarose gel electrophoresis
# [10] = tested on: Escherichia coli; test: Inhibition of DNA gyrase mRNA expression in Escherichia coli measured up to 24 hrs by RT-PCR; format: functional, organism-based
# [11] = tested on: Staphylococcus aureus; test: Antibacterial activity against Staphylococcus aureus after 18 to 20 hrs by broth micro dilution assay; format: functional
# [12] = tested on: Escherichia coli; test: Antibacterial activity against Escherichia coli after 18 to 20 hrs by broth micro dilution assay; format: functional
# [13] = tested on: Klebsiella pneumoniae; test: Antibacterial activity against Klebsiella pneumoniae after 18 to 20 hrs by broth micro dilution assay; format: functional
# [14] = tested on: Pseudomonas aeruginosa; test: Antibacterial activity against Pseudomonas aeruginosa after 18 to 20 hrs by broth micro dilution assay; format: functional
# [15] = tested on: Salmonella typhi; test: Antibacterial activity against Salmonella typhi after 18 to 20 hrs by broth micro dilution assay; format: functional, Salmonella enterica subsp. enterica serovar Typhi; conditions: Salmonella enterica
# [16] = tested on: Bacillus subtilis; test: Antibacterial activity against Bacillus subtilis after 18 to 20 hrs by broth micro dilution assay; format: functional
# [17] = tested on: Staphylococcus aureus; test: Antibacterial activity against Staphylococcus aureus at 5 ug after 24 hrs by disc diffusion assay; format: functional; conditions: read-out: IZ
# [18] = tested on: Staphylococcus aureus; test: Antibacterial activity against Staphylococcus aureus at 10 ug after 24 hrs by disc diffusion assay; format: functional; conditions: read-out: IZ
# [19] = tested on: Staphylococcus aureus; test: Antibacterial activity against Staphylococcus aureus at 15 ug after 24 hrs by disc diffusion assay; format: functional; conditions: read-out: IZ
# [20] = tested on: Staphylococcus aureus; test: Antibacterial activity against Staphylococcus aureus at 20 ug after 24 hrs by disc diffusion assay; format: functional; conditions: read-out: IZ
# [21] = tested on: Staphylococcus aureus; test: Antibacterial activity against Staphylococcus aureus at 25 ug after 24 hrs by disc diffusion assay; format: functional; conditions: read-out: IZ
# [22] = tested on: Escherichia coli; test: Antibacterial activity against Escherichia coli at 5 ug after 24 hrs by disc diffusion assay; format: functional; conditions: read-out: IZ
# [23] = tested on: Escherichia coli; test: Antibacterial activity against Escherichia coli at 10 ug after 24 hrs by disc diffusion assay; format: functional; conditions: read-out: IZ
# [24] = tested on: Escherichia coli; test: Antibacterial activity against Escherichia coli at 15 ug after 24 hrs by disc diffusion assay; format: functional; conditions: read-out: IZ
# [25] = tested on: Escherichia coli; test: Antibacterial activity against Escherichia coli at 20 ug after 24 hrs by disc diffusion assay; format: functional; conditions: read-out: IZ
# [26] = tested on: Escherichia coli; test: Antibacterial activity against Escherichia coli at 25 ug after 24 hrs by disc diffusion assay; format: functional; conditions: read-out: IZ
# [27] = tested on: Pseudomonas aeruginosa; test: Antibacterial activity against Pseudomonas aeruginosa at 5 ug after 24 hrs by disc diffusion assay; format: functional; conditions: read-out: IZ
# [28] = tested on: Pseudomonas aeruginosa; test: Antibacterial activity against Pseudomonas aeruginosa at 10 ug after 24 hrs by disc diffusion assay; format: functional; conditions: read-out: IZ
# [29] = tested on: Pseudomonas aeruginosa; test: Antibacterial activity against Pseudomonas aeruginosa at 15 ug after 24 hrs by disc diffusion assay; format: functional; conditions: read-out: IZ
# [30] = tested on: Pseudomonas aeruginosa; test: Antibacterial activity against Pseudomonas aeruginosa at 20 ug after 24 hrs by disc diffusion assay; format: functional; conditions: read-out: IZ
# [31] = tested on: Pseudomonas aeruginosa; test: Antibacterial activity against Pseudomonas aeruginosa at 25 ug after 24 hrs by disc diffusion assay; format: functional; conditions: read-out: IZ
# [32] = tested on: Klebsiella pneumoniae; test: Antibacterial activity against Klebsiella pneumoniae at 5 ug after 24 hrs by disc diffusion assay; format: functional; conditions: read-out: IZ
# [33] = tested on: Klebsiella pneumoniae; test: Antibacterial activity against Klebsiella pneumoniae at 10 ug after 24 hrs by disc diffusion assay; format: functional; conditions: read-out: IZ
# [34] = tested on: Klebsiella pneumoniae; test: Antibacterial activity against Klebsiella pneumoniae at 15 ug after 24 hrs by disc diffusion assay; format: functional; conditions: read-out: IZ
# [35] = tested on: Klebsiella pneumoniae; test: Antibacterial activity against Klebsiella pneumoniae at 20 ug after 24 hrs by disc diffusion assay; format: functional; conditions: read-out: IZ
# [36] = tested on: Klebsiella pneumoniae; test: Antibacterial activity against Klebsiella pneumoniae at 25 ug after 24 hrs by disc diffusion assay; format: functional; conditions: read-out: IZ
# [37] = tested on: Salmonella typhi; test: Antibacterial activity against Salmonella typhi at 5 ug after 24 hrs by disc diffusion assay; format: functional, Salmonella enterica subsp. enterica serovar Typhi; conditions: Salmonella enterica, read-out: IZ
structure (smiles),measurement,setting,value
CCC1[C@H]2c3c(n(C)c4ccccc4c3=O)OC(c3ccccc3)[C@@H]2CN1OS(=O)(=O)c1ccc(C)cc1 (mixture of isomers),zone of inhibition at 10 µg/disc,[1],16 mm
same,zone of inhibition at 15 µg/disc,[2],18 mm
same,zone of inhibition at 20 µg/disc,[3],22 mm
same,zone of inhibition at 25 µg/disc,[4],24 mm
same,zone of inhibition at 15 µg/disc,[5],6 mm
same,zone of inhibition at 20 µg/disc,[6],7 mm
same,zone of inhibition at 25 µg/disc,[7],9 mm
same,DNA gyrase inhibition (active/inactive),[8],Active
same,inhibition,[9],Active
same,inhibition of gyrase mRNA expression (active/not active),[10],Active
same,MIC50,[11],128 µg/mL
same,MIC90,[11],128 µg/mL
same,MIC50,[12],128 µg/mL
same,MIC90,[12],128 µg/mL
same,MIC50,[13],128 µg/mL
same,MIC90,[13],128 µg/mL
same,MIC50,[14],128 µg/mL
same,MIC90,[14],128 µg/mL
same,MIC50,[15],128 µg/mL
same,MIC90,[15],128 µg/mL
same,MIC50,[16],128 µg/mL
same,MIC90,[16],128 µg/mL
same,zone of inhibition at 5 µg/disc,[17],20 mm
same,zone of inhibition at 10 µg/disc,[18],24 mm
same,zone of inhibition at 15 µg/disc,[19],26 mm
same,zone of inhibition at 20 µg/disc,[20],30 mm
same,zone of inhibition at 25 µg/disc,[21],36 mm
same,zone of inhibition at 5 µg/disc,[22],12 mm
same,zone of inhibition at 10 µg/disc,[23],14 mm
same,zone of inhibition at 15 µg/disc,[24],16 mm
same,zone of inhibition at 20 µg/disc,[25],22 mm
same,zone of inhibition at 25 µg/disc,[26],23 mm
same,zone of inhibition at 5 µg/disc,[27],10 mm
same,zone of inhibition at 10 µg/disc,[28],14 mm
same,zone of inhibition at 15 µg/disc,[29],16 mm
same,zone of inhibition at 20 µg/disc,[30],20 mm
same,zone of inhibition at 25 µg/disc,[31],23 mm
same,zone of inhibition at 5 µg/disc,[32],20 mm
same,zone of inhibition at 10 µg/disc,[33],26 mm
same,zone of inhibition at 15 µg/disc,[34],30 mm
same,zone of inhibition at 20 µg/disc,[35],34 mm
same,zone of inhibition at 25 µg/disc,[36],36 mm
same,zone of inhibition at 5 µg/disc,[37],10 mm
CCC1[C@@H]2Nc3ccc(Cl)cc3C(C)(C)[C@H]2CN1OS(=O)(=O)c1ccc(C)cc1 (stereo partly specified),zone of inhibition at 10 µg/disc,[1],16 mm
same,zone of inhibition at 15 µg/disc,[2],18 mm
same,zone of inhibition at 20 µg/disc,[3],22 mm
same,zone of inhibition at 25 µg/disc,[4],24 mm
same,zone of inhibition at 15 µg/disc,[5],6 mm
same,zone of inhibition at 20 µg/disc,[6],7 mm
same,zone of inhibition at 25 µg/disc,[7],9 mm
same,DNA gyrase inhibition (active/inactive),[8],Active
same,inhibition,[9],Active
same,inhibition of gyrase mRNA expression (active/not active),[10],Active
same,MIC50,[11],128 µg/mL
same,MIC90,[11],128 µg/mL
same,MIC50,[12],128 µg/mL
same,MIC90,[12],128 µg/mL
same,MIC50,[13],128 µg/mL
same,MIC90,[13],128 µg/mL
same,MIC50,[14],128 µg/mL
same,MIC90,[14],128 µg/mL
same,MIC50,[15],128 µg/mL
same,MIC90,[15],128 µg/mL
same,MIC50,[16],128 µg/mL
same,MIC90,[16],128 µg/mL
same,zone of inhibition at 5 µg/disc,[17],20 mm
same,zone of inhibition at 10 µg/disc,[18],24 mm
same,zone of inhibition at 15 µg/disc,[19],26 mm
same,zone of inhibition at 20 µg/disc,[20],30 mm
same,zone of inhibition at 25 µg/disc,[21],36 mm
same,zone of inhibition at 5 µg/disc,[22],10 mm
same,zone of inhibition at 10 µg/disc,[23],16 mm
same,zone of inhibition at 15 µg/disc,[24],18 mm
same,zone of inhibition at 20 µg/disc,[25],20 mm
same,zone of inhibition at 25 µg/disc,[26],23 mm
same,zone of inhibition at 5 µg/disc,[27],10 mm
same,zone of inhibition at 10 µg/disc,[28],14 mm
same,zone of inhibition at 15 µg/disc,[29],16 mm
same,zone of inhibition at 20 µg/disc,[30],20 mm
same,zone of inhibition at 25 µg/disc,[31],23 mm
same,zone of inhibition at 5 µg/disc,[32],20 mm
same,zone of inhibition at 10 µg/disc,[33],26 mm
same,zone of inhibition at 15 µg/disc,[34],30 mm
same,zone of inhibition at 20 µg/disc,[35],34 mm
same,zone of inhibition at 25 µg/disc,[36],36 mm
same,zone of inhibition at 5 µg/disc,[37],10 mm
